Patent US11298364B2, “Methods and products for preventing and/or treating microorganism infections comprising iron chelators and non-iron porphyrins” (The University of Adelaide, priority 2015, dated 2022)

What was measured:
[1] = test system: S. aureus ATCC 25923 biofilms; test: S. aureus biofilm killing, 96-well biofilm, AlamarBlue viability assay; format: cell-based, Staphylococcus aureus; details: 2 h
Description: Single colonies of S. aureus ATCC 25923 (American Type Culture Collection, Manassas, Va., USA) were immersed in 0.45% saline (Sigma Aldrich, Germany), adjusted to 1.0±0.1 McFarland units (3×10^8 colony forming units/ml), and diluted 1:15 in nutrient broth (Oxoid Ltd., England). The bacteria-broth mixture was added into 96-well plates at 150 μl per well (Costar®, Corning Incorporated, NY, USA). Incubation for 72 hours at 37° C. on a rotating plate set at 70 rpm (3D Gyratory Mixer, Ratek Instruments, Australia) assured extensive S. aureus biofilm growth.
Biofilms were washed twice with phosphate buffered saline (PBS, Sigma Aldrich, Germany) to remove planktonic cells, before treating the biofilms with various concentrations of i) Deferiprone (“Def”; 3-hydroxy-1,2-dimethylpyridin-4(1H)-one, Sigma Aldrich, Germany), ii) Gallium-Protoporphyrin (“GAPP”; Frontier Scientific, UT, USA), iii) a concurrent combination of both compounds and iv) a consecutive combination of both compounds. To prepare the treatments, Def was dissolved in water and GaPP was dissolved in an aqueous 0.03% solution of Tween® 80 (polyoxyethylene sorbitan […], Sigma Aldrich, Germany), i.e. above the critical micelle concentration (CMC) of Tween® 80 ([…]). Controls included bacterial wells without treatment (i.e. 100% bacterial growth, negative control), blank wells without bacteria (i.e. 0% growth, positive control) and bacterial wells with Tween® 80 treatment (as a control for GaPP dilutions). After 2 hours incubation of each treatment at 37° C. on a rotating plate, a second washing step with PBS followed to remove the treatments.
Bacterial viability was assessed using the AlamarBlue cell viability assay as described in Peeters, E. et al. (2008) Journal of Microbiological Methods, 72(2): p. 157-165. A 10% AlamarBlue dilution (Resazurin, Life Technologies, Australia) in nutrient broth was prepared and added to each well. Plates were incubated in the dark at 37° C. on a rotating plate. Fluorescence of Resorufin was measured hourly on a FLUOstar OPTIMA plate reader (BMG LABTECH, Germany). The method was set at bottom reading and fluorescence was measured at λexcitation 530 nm/λemission 590 nm. Maximum intensities were typically reached after 6 hours incubation and used for quantification according to Equation 1:
Bacterial viability was determined as the percentage of biofilm killing (% BK), where IC represents the fluorescence intensity of the controls (i.e. 100% bacterial growth) and IT indicates the maximum intensity of the treatments. Both IC and IT were corrected by the intensity of background (i.e. 0% bacterial growth).

[2] = test system: planktonic S. aureus ATCC 25923; test: Minimal inhibitory concentration, broth microdilution (Example 1); format: cell-based, Staphylococcus aureus; details: 20 hours, 37° C.
Description: MIC values were assessed for the individual compounds Def and GaPP against planktonic S. aureus using standard methods, specifically colony suspension method and broth microdilution as described in Wiegand, I. et al. (2008) Nat Protoc, 3(2): p. 163-75. Briefly, single colonies of S. aureus ATCC 25923 were suspended in 0.45% saline and adjusted to 0.5 McFarland units. The bacterial suspension was 1:100 diluted with nutrient broth and plated into 96-well plates. Various treatment dilutions of Def and GaPP were added, followed by incubation of the plate at 37° C. for 20 hours. The MIC was determined as the lowest drug concentration preventing turbidity.

[3] = test system: L929 cells (mouse fibroblast cell line); test: LDH cell viability test; format: cell-based; details: 2 h
Description: (§1) L929 cells (mouse fibroblast cell line) and Nuli-1 cells (human airway epithelial cell line) were obtained from ATCC (American Type Culture Collection, Manassas, Va., USA). The Nuli-1 cell line was cultured in Bronchial Epithelial Cell Growth Medium (Lonza, Australia) and L929 cells were grown in Dulbecco's Modified Eagle Medium (Sigma-Aldrich, Germany). Cells were maintained in a fully humidified incubator with 5% CO2 at 37° C.
(§2) The lactate dehydrogenase (LDH) bioassay (Roche Diagnostics Corporation, Indianapolis, Ind., USA) was performed to assess the cytotoxic effects of Def and GaPP. Briefly, cells were seeded at 1×10^4 into each well in 100 μl in quadruplicate wells of 96-well flat-bottom plates and incubated for 24 hours (37° C., 5% CO2) to allow attachment of cells. To assess the toxicity of the dual treatment, firstly, 100 μl of Def (20 mM) was added to each well. After 2 hours incubation, cells were washed three times with PBS and were exposed to different concentrations of GaPP (100, 200, 300, 400 and 500 μg/ml) for another 2 hours. In addition, cells were separately treated with either Def or GaPP for 2 hours. The OD was measured at 490 nm.

[4] = test system: Nuli-1 cells (human airway epithelial cell line); test: LDH cell viability test; format: cell-based; details: 2 h
Description: as §1, §2

[5] = test system: S. aureus; test: Plate assay for anti-bacterial properties (agar holes filled with vehicle); format: cell-based; details: in vehicle: 20 mM Def and/or 200 μg/ml GaPP, 24 hours
Description: To investigate the anti-bacterial properties of Def and GaPP individually, or with Def and GaPP in combination, a plate assay was used. Briefly, liquid nutrient agar was mixed with an aliquot of a S. aureus or Pseudomonas aeruginosa overnight culture and poured into Petri dishes. After the agar was solidified, holes (0.9 cm diameter) were punched into the agar and aspirated. Subsequently, the holes were filled with 200 μl of a vehicle with and without Def/GaPP. Following incubation at 37° C. for 24 hours, the inhibition diameter was assessed as a measure of efficacy against S. aureus or Pseudomonas aeruginosa bacteria.

[6] = Drug release from hydrogel into phosphate buffered saline; format: physicochemical
Description: Drug release: Five millilitre of gel was prepared in a Falcon tube and allowed to solidify, after which 10 ml release medium (phosphate buffered saline, Sigma Aldrich) was added. The tube was incubated at 37° C. on a rotating platform for 20 days. […] The concentration of […] quantified by UV-Vis spectroscopy (Evolution 201 UV-Vis Spectrophotometer, Thermo Fisher Scientific, Scoresby, VIC, Australia) at 280 nm and 405 nm, respectively, by interpolating from a standard curve.

[7] = test system: planktonic S. aureus ATCC 25923; test: MIC of gel-released drugs, broth dilution (Example 6); format: cell-based, Staphylococcus aureus; details: S. aureus 25923
Description: (§3) Bacterial strains: S. aureus ATCC 25923 was purchased from American Type Culture Collection (Manassas, Va., USA). Clinical MRSA isolate strains were obtained from Adelaide Pathology Partners (Mile End, SA, Australia).
(§4) The MIC was evaluated as the lowest drug concentration preventing bacterial growth.

[8] = test system: planktonic clinical MRSA isolate MRSA a; test: as above; format: cell-based, Staphylococcus aureus; details: MRSA a (resistant to 4 antibiotics)
Description: as §3, §4

[9] = test system: planktonic clinical MRSA isolate MRSA b; test: as above; format: cell-based, Staphylococcus aureus; details: MRSA b (resistant to 4 antibiotics)
Description: as §3, §4

[10] = test system: planktonic clinical MRSA isolate MRSA c; test: as above; format: cell-based, Staphylococcus aureus; details: MRSA c (resistant to 5 antibiotics)
Description: as §3, §4

[11] = test system: planktonic clinical MRSA isolate MRSA d; test: as above; format: cell-based, Staphylococcus aureus; details: MRSA d (resistant to 7 antibiotics)
Description: as §3, §4

[12] = test system: planktonic clinical MRSA isolate MRSA e; test: as above; format: cell-based, Staphylococcus aureus; details: MRSA e (resistant to 9 antibiotics)
Description: as §3, §4

[13] = Staphylococcus aureus, read-out: minimal inhibitory concentration

## Cc1c(O)c(=O)ccn1C [Def, 3-hydroxy-1,2-dimethylpyridin-4(1H)-one, reference compound]
[1]; Def 0.5 mM
  Biofilm killing (%) by single treatment Def: 6.09%
[1]; Def 1.5 mM
  Biofilm killing (%) by single treatment Def: 7.65%
[1]; Def 5 mM
  Biofilm killing (%) by single treatment Def: 12.07%
[1]; Def 10 mM
  Biofilm killing (%) by single treatment Def: 22.88%
[1]; Def 20 mM
  Biofilm killing (%) by single treatment Def: 34.00%
[1]; Def at concentrations above 20 mM
  biofilm reduction plateau: approximately 34%
[2]; Staphylococcus aureus, ATCC25923, read-out: MIC
  MIC: 2500 µM
[3]; Def 20 mM
  cell viability (LDH assay) vs negative control: no statistically significant difference
[4]; Def 20 mM
  cell viability (LDH assay) vs negative control: no statistically significant difference
[5]
  anti-bacterial activity (inhibition on plate): relatively little anti-bacterial activity
[6]; 37° C., PBS
  time to complete release from hydrogel: 48 to 72 h
[6]; after approximately 48-72 hours, 37° C., PBS
  release of Def (percentage of the original concentration in the gel): 100%
[7]; Staphylococcus aureus, ATCC25923, read-out: minimal inhibitory concentration
  MIC: 28 µg/mL
[8]; [13]
  MIC: 56 µg/mL
[9]; [13]
  MIC: 56 µg/mL
[10]; [13]
  MIC: 56 µg/mL
[11]; [13]
  MIC: 56 µg/mL
[12]; [13]
  MIC: 56 µg/mL

## C=CC1=C(C)C2=[N+]3C1=Cc1c(C)c(C=C)c4[n]1[Ga-]31[n]3c(c(C)c(CCC(=O)O)c3=CC3=[N+]1C(=C4)C(C)=C3CCC(=O)O)=C2 (stereo not shown) [GaPP, gallium-protoporphyrin IX]
[1]; GaPP 1 μg/ml
  Biofilm killing (%) by single treatment GaPP: 9.04%
[1]; GaPP 5 μg/ml
  Biofilm killing (%) by single treatment GaPP: 32.18%
[1]; GaPP 10 μg/ml
  Biofilm killing (%) by single treatment GaPP: 41.99%
[1]; GaPP 50 μg/ml
  Biofilm killing (%) by single treatment GaPP: 52.90%
[1]; GaPP 100 μg/ml
  Biofilm killing (%) by single treatment GaPP: 69.86%
[2]
  MIC: 0.4 µg/mL
[3]; GaPP 500 μg/ml
  cell viability (LDH assay) vs negative control: induced cell toxicity
[3]; GaPP 100-400 μg/ml
  cell viability (LDH assay) vs negative control: no significant effect
[4]; GaPP 500 μg/ml
  cell viability (LDH assay) vs negative control: induced cell toxicity
[4]; GaPP 100-400 μg/ml
  cell viability (LDH assay) vs negative control: no significant effect
[5]
  anti-bacterial activity (inhibition on plate): significant anti-bacterial activity
[6]; after 460 hours, 37° C., PBS
  release of GaPP (percentage of the original concentration in the gel): 20-25%
[6]; after 20 days
  incorporated GaPP released from the hydrogel: approximately 25%
[7]
  minimal inhibitory concentration: 0.90 µg/mL
[8]
  minimal inhibitory concentration: 1.48 µg/mL
[9]
  minimal inhibitory concentration: 0.74 µg/mL
[10]
  minimal inhibitory concentration: 1.48 µg/mL
[11]
  minimal inhibitory concentration: 1.48 µg/mL
[12]
  minimal inhibitory concentration: 1.48 µg/mL
